Measurements: US8895695B2, “Template-fixed beta-hairpin peptidomimetics with CXCR4 antagonizing activity” (priority 2003, dated 2014)
Read-outs that look alike come from different tables or passages of the source. Bridge positions count the residues as written; N and C are the ends. Square brackets hold non-standard residues; d marks the D form. Peptide text beside a SMILES is read from it. * marks the point of attachment. Decanoyl(3,6,9-trioxa) = COCCOCCOCC(=O)*; 2Nal = N[C@@H](Cc1ccc2ccccc2c1)C(=O)O; Cit = NC(=O)NCCC[C@H](N)C(=O)O; Dab = NCC[C@H](N)C(=O)O; Dap = NC[C@H](N)C(=O)O

Experiments:
[1] = molecular target: CXCR4 (Homo sapiens, UniProt P61073); test: Ca2+-assay method 2 (Flexstation, SDF-1 induced calcium mobilization); format: cell-based; parameters: expressed in transfected cells; host or cells: mouse pre-B cell line 300-19; conditions: method 2 (Ex. 54-160), mouse pre-B cell line 300-19 with human CXCR4, 10 nM SDF-1
Sequence of CXCR4 (P61073 whole entry): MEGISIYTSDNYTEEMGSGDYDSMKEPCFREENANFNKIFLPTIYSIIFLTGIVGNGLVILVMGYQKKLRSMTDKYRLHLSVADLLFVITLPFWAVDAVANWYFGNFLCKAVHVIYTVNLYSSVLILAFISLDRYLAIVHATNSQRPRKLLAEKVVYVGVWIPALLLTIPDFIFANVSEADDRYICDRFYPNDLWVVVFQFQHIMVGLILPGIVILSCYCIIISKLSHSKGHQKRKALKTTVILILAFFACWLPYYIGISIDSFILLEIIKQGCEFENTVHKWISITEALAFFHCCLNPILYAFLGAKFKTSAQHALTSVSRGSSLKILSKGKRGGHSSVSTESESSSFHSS
Description: 2.2. Ca^2+-Assay: CXCR4-Antagonizing Activity of the Peptides.
The cells were batch loaded with the Calcium 3 Assay kit (Molecular Devices) in assay buffer (Hanks Balanced salt solution, HBSS, 20 mM HEPES, pH 7.4, 0.1% BSA) for 1 h at room temperature and then 200,000 labeled cells were dispensed into black 96 well assays plates (Costar No. 3603). A 20-fold concentrated solution of peptide in assay buffer was added to the cells and the whole plate was centrifuged to settle the cells to the bottom of the wells. Calcium mobilization induced by 10 nM stromal-derived factor-1 (SDF-1) was measured in the Flexstation 384 (excitation, 485 nM; emission, 525 nM) for 90 seconds. A maximal change in fluorescence response above baseline was used to calculate antagonist activity. The data for dose response curves (antagonist concentration versus % maximum response) were fitted to a four parameter logistic equation using SoftmaxPro 4.6 (Molecular Devices), from which IC50% values were calculated.

[2] = system: human red blood cells (hRBC); test: Hemolysis; format: cell-based
Description: The peptides were tested for their hemolytic activity against human red blood cells (hRBC). Fresh hRBC were washed three times with phosphate buffered saline (PBS) by centrifugation for 10 min at 2000×g. Peptides at a concentration of 100 μM were incubated with 20% v/v hRBC for 1 hour at 37° C. The final erythrocyte concentration was approximately 0.9×10^9 cells per ml. A value of 0% resp. 100% cell lysis was determined by incubation of the hRBC in the presence of PBS alone and respectively 0.1% Triton X-100 in H2O. The samples were centrifuged and the supernatant was 20-fold diluted in PBS buffer and the optical density (OD) of the sample at […] was measured. The 100% lyses value (OD540H2O) gave an OD540 of approximately 1.3-1.8. Percent hemolysis was calculated as follows: (OD540peptide/OD540H2O)×100%.

[3] = in vitro; conditions: human
[4] = read-out: IC50 (nM) Ca^2+ assay
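For GI50 in this document: MTT reduction read as absorbance at 595 nm, blank-corrected and expressed as percent growth relative to the time-zero cell reading, triplicate wells per concentration.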

| SMILES | IC50 [1, 4] | IC50 ([1]; IC50 (nM) Ca^2+ assay) | Hemolysis at 100 μM [2] | further results |
| --- | --- | --- | --- | --- |
| N=C(N)NCCC[C@@H]1NC(=O)[C@@H]2CSSC[C@H](NC(=O)[C@H](Cc3c[nH]c4ccccc34)NC(=O)[C@H](CCCNC(=N)N)NC(=O)[C@H](CCCNC(=N)N)NC(=O)[C@H]3CCCN3C(=O)CNC1=O)C(=O)N[C@@H](Cc1ccc(O)cc1)C(=O)N[C@@H](CCCNC(N)=O)C(=O)N[C@@H](CCCCN)C(=O)N1CCC[C@@H]1C(=O)N1CCC[C@H]1C(=O)N[C@@H](Cc1ccc(O)cc1)C(=O)N[C@@H](CCCNC(=N)N)C(=O)N[C@@H](CCCNC(N)=O)C(=O)N2 [Ex. 128] (cyclo(YR[Cit]CRG[dP]RRWCY[Cit]K[dP]P); disulfide 4-11) | 4.5 nM | – | – | – |
| N=C(N)NCCC[C@@H]1NC(=O)[C@@H]2CSSC[C@H](NC(=O)[C@H](Cc3c[nH]c4ccccc34)NC(=O)[C@H](CCCNC(=N)N)NC(=O)[C@H](CCCNC(=N)N)NC(=O)[C@H]3CCCN3C(=O)CNC1=O)C(=O)N[C@@H](Cc1ccc(O)cc1)C(=O)N[C@@H](CCCNC(=N)N)C(=O)N[C@@H](CCCCN)C(=O)N[C@H]1CSSC[C@H](NC(=O)[C@H](Cc3ccc(O)cc3)NC(=O)CNC(=O)[C@H](CCCCN)NC(=O)[C@H](Cc3ccc(O)cc3)NC1=O)C(=O)N[C@@H](Cc1ccc(O)cc1)C(=O)N[C@@H](CCCNC(=N)N)C(=O)N[C@@H](CCCCN)C(=O)N2 [Ex. 160] (cyclo(CRG[dP]RRWCYRKCYKGYCYRK); disulfide 1-8, 12-17) | – | 0.38 nM | – | – |
| N=C(N)NCCC[C@@H]1NC(=O)[C@@H]2CSSC[C@H](NC(=O)[C@H](Cc3ccc4ccccc4c3)NC(=O)[C@H](CCCNC(=N)N)NC(=O)[C@H](CN)NC(=O)[C@H]3CCCN3C(=O)CNC1=O)C(=O)N[C@@H](Cc1ccc(O)cc1)C(=O)N[C@@H](CCCNC(N)=O)C(=O)N[C@@H](CCCCN)C(=O)N1CCC[C@@H]1C(=O)N1CCC[C@H]1C(=O)N[C@@H](Cc1ccc(O)cc1)C(=O)N[C@@H](CCCNC(=N)N)C(=O)N[C@@H](CCCNC(N)=O)C(=O)N2 [Ex. 135] (cyclo(YR[Cit]CRG[dP][Dap]R[2Nal]CY[Cit]K[dP]P); disulfide 4-11) | – | – | 0.1% | GI50 at 48 h [3]: 30000 nM |
| N=C(N)NCCC[C@@H]1NC(=O)[C@@H]2CSSC[C@H](NC(=O)[C@H](Cc3c[nH]c4ccccc34)NC(=O)[C@H](CCCNC(=N)N)NC(=O)[C@H](CCCNC(=N)N)NC(=O)[C@H]3CCCN3C(=O)CNC1=O)C(=O)N[C@@H](Cc1ccc(O)cc1)C(=O)N[C@@H](CCC(N)=O)C(=O)N[C@@H](CCCCN)C(=O)N[C@H]1CSSC[C@H](NC(=O)[C@H](Cc3ccc(O)cc3)NC(=O)CNC(=O)[C@H](CCCCN)NC(=O)[C@H](Cc3ccc(O)cc3)NC1=O)C(=O)N[C@@H](Cc1ccc(O)cc1)C(=O)N[C@@H](CCCNC(=N)N)C(=O)N[C@@H](CCCNC(N)=O)C(=O)N2 [Ex. 155] (cyclo(CRG[dP]RRWCYQKCYKGYCYR[Cit]); disulfide 1-8, 12-17) | – | 0.46 nM | – | – |
| N=C(N)NCCC[C@@H]1NC(=O)[C@@H]2CSSC[C@H](NC(=O)[C@H](Cc3ccc4ccccc4c3)NC(=O)[C@H](CCCNC(=N)N)NC(=O)[C@H](CCCNC(=N)N)NC(=O)[C@H]3CCCN3C(=O)CNC1=O)C(=O)N[C@@H](Cc1ccc(O)cc1)C(=O)N[C@@H](CCC(N)=O)C(=O)N[C@@H](CCCCN)C(=O)N1CCC[C@@H]1C(=O)N1CCC[C@H]1C(=O)N[C@@H](Cc1ccc(O)cc1)C(=O)N[C@@H](CCCNC(=N)N)C(=O)N[C@@H](CCCNC(N)=O)C(=O)N2 [Ex. 132] (cyclo(RR[2Nal]CYQK[dP]PYR[Cit]CRG[dP]); disulfide 4-13) | – | – | 0% | GI50 at 48 h [3]: 76000 nM |
| C[C@@H](O)[C@@H]1NC(=O)[C@H](CCCNC(=N)N)NC(=O)[C@H](Cc2ccc(O)cc2)NC(=O)[C@@H]2CCCN2C(=O)[C@H]2CCCN2C(=O)[C@H](CCCCN)NC(=O)[C@H](CCCNC(N)=O)NC(=O)[C@H](Cc2ccc(O)cc2)NC(=O)[C@@H]2CSSC[C@H](NC1=O)C(=O)N[C@@H](CCCNC(=N)N)C(=O)NCC(=O)N1CCC[C@@H]1C(=O)N[C@@H](CCCNC(=N)N)C(=O)N[C@@H](CCCNC(=N)N)C(=O)N[C@@H](Cc1ccc(O)cc1)C(=O)N2 [Ex. 146] (cyclo(YRTCRG[dP]RRYCY[Cit]K[dP]P); disulfide 4-11) | 0.24 nM | – | – | – |
| N=C(N)NCCC[C@@H]1NC(=O)[C@@H]2CSSC[C@H](NC(=O)[C@H](Cc3ccc4ccccc4c3)NC(=O)[C@H](CCCNC(=N)N)NC(=O)[C@H](CCCNC(=N)N)NC(=O)[C@H]3CCCN3C(=O)CNC1=O)C(=O)N[C@@H](Cc1ccc(O)cc1)C(=O)N[C@@H](CCCNC(N)=O)C(=O)N[C@@H](CCCCN)C(=O)N[C@H]1CSSC[C@H](NC(=O)[C@H](Cc3ccc(O)cc3)NC(=O)CNC(=O)[C@H](CCCCN)NC(=O)[C@H](Cc3ccc(O)cc3)NC1=O)C(=O)N[C@@H](Cc1ccc(O)cc1)C(=O)N[C@@H](CCCNC(=N)N)C(=O)N[C@@H](CCCNC(N)=O)C(=O)N2 [Ex. 154] (cyclo([2Nal]CY[Cit]KCYKGYCYR[Cit]CRG[dP]RR); disulfide 2-15, 6-11) | – | 9.3 nM | – | – |
| COCCOCCOCC(=O)NCC[C@@H]1NC(=O)[C@H]2CCCN2C(=O)CNC(=O)[C@H](CCCNC(=N)N)NC(=O)[C@@H]2CSSC[C@H](NC(=O)[C@H](Cc3c[nH]c4ccccc34)NC(=O)[C@H](CCCNC(=N)N)NC1=O)C(=O)N[C@@H](Cc1ccc(O)cc1)C(=O)N[C@@H](CCCNC(N)=O)C(=O)N[C@@H](CCCCN)C(=O)N1CCC[C@@H]1C(=O)N1CCC[C@H]1C(=O)N[C@@H](Cc1ccc(O)cc1)C(=O)N[C@@H](CCCNC(=N)N)C(=O)N[C@@H](CCCNC(N)=O)C(=O)N2 [Ex. 142] (cyclo(YR[Cit]CRG[dP][Dab](Decanoyl(3,6,9-trioxa))RWCY[Cit]K[dP]P); disulfide 4-11) | – | 96.9 nM | – | – |
| N=C(N)NCCC[C@@H]1NC(=O)[C@H](CCCNC(=N)N)NC(=O)[C@H]2CCCN2C(=O)CNC(=O)[C@H](CCN)NC(=O)[C@@H]2CSSC[C@H](NC(=O)[C@H](Cc3c[nH]c4ccccc34)NC1=O)C(=O)N[C@@H](Cc1ccc(O)cc1)C(=O)N[C@@H](CCC(N)=O)C(=O)N[C@@H](CCCCN)C(=O)N1CCC[C@@H]1C(=O)N1CCC[C@H]1C(=O)N[C@@H](Cc1ccc(O)cc1)C(=O)N[C@@H](CCCNC(=N)N)C(=O)N[C@@H](CCCNC(N)=O)C(=O)N2 [Ex. 111] (cyclo(YR[Cit]C[Dab]G[dP]RRWCYQK[dP]P); disulfide 4-11) | – | – | 0% | GI50 at 48 h [3]: > 100000 nM |
| CC(C)C[C@@H]1NC(=O)[C@@H]2CCCN2C(=O)[C@H]2CCCN2C(=O)[C@H](CCCCN)NC(=O)[C@H](CCC(N)=O)NC(=O)[C@H](Cc2ccc(O)cc2)NC(=O)[C@@H]2CSSC[C@H](NC(=O)[C@H](CCCNC(N)=O)NC(=O)[C@H](CCCNC(=N)N)NC1=O)C(=O)N[C@@H](CCCNC(=N)N)C(=O)NCC(=O)N1CCC[C@@H]1C(=O)N[C@@H](CCCNC(=N)N)C(=O)N[C@@H](CCCNC(=N)N)C(=O)N[C@@H](Cc1ccc3ccccc3c1)C(=O)N2 [Ex. 144] (cyclo(LR[Cit]CRG[dP]RR[2Nal]CYQK[dP]P); disulfide 4-11) | 0.18 nM | – | – | – |
| N=C(N)NCCC[C@@H]1NC(=O)[C@@H]2CSSC[C@H](NC(=O)[C@H](Cc3ccc4ccccc4c3)NC(=O)[C@H](CCCNC(=N)N)NC(=O)[C@H](CCCNC(=N)N)NC(=O)[C@H]3CCCN3C(=O)CNC1=O)C(=O)N[C@@H](Cc1ccc(O)cc1)C(=O)N[C@@H](CCC(N)=O)C(=O)N[C@@H](CCCCN)C(=O)N1CCC[C@@H]1C(=O)N1CCC[C@H]1C(=O)N[C@@H](Cc1ccc(O)cc1)C(=O)N[C@@H](CCCNC(=N)N)C(=O)N[C@@H](CCCNC(N)=O)C(=O)N2 [Ex. 115] (cyclo(RR[2Nal]CYQK[dP]PYR[Cit]CRG[dP]); disulfide 4-13) | 2.7 nM | – | 0.1% | – |
